From PMC12705226, “Lotusin A: a novel pyrrole terpenoid hydrid from lotus roots (Nelumbo nucifera Gaertn.)” (RSC Advances, 2025) come the findings set out here.

One may read the IC50 as the concentration at which inhibition is half-maximal.

Molecules are shown by their SMILES. Like-named read-outs stand apart in the source and are kept apart here.

The target of experiment [1] is α-glucosidase (Saccharomyces cerevisiae, UniProt P38158). Description: biochemical. The procedure: The α-glucosidase inhibitory assay was performed using a somewhat modified method of Kurihara et al.[44] For every reaction, […] p-nitrophenyl-α-D-glucopyranoside, 50 mL of 0.1 U mL^−1, α-glucosidase in 0.01 M phosphate buffer (pH 7.0), […] of sample solution (various concentrations of compound 1 with 5, 10, 25, 50 µM) were mixed. The mixture was kept at 37 °C for 30 minutes and added with 0.1 M Na2CO3. Mixture after reaction will be measured at a wavelength of 401 nm. The IC50 values represented the inhibitor concentration that suppressed 50% of enzyme activity. […] All experiments were performed in triplicate. The percentage inhibition was calculated using the following equation: α-glucosidase inhibition (%) = (Ac − At)/Ac × 100, where Ac is the absorbance of control (α-glucosidase, without sample) and At is the absorbance of test samples (α-glucosidase, with sample). The experimental results were processed using the GraphPad Prism 8 software.

Experiment [2] relates to RAW264.7 cells. Description: Determination of NO production in LPS-treated RAW264.7 cells (Griess reagent). Type of experiment: cell-based. The following applies: for IC50: Mus musculus. Here is the method: The production of nitric oxide (NO) was quantified by measuring the NO levels in cell culture supernatants using a previously method. In brief, RAW264.7 cells (ATCC, Rockville, MD, USA, 1 × 10^5 cells per well) were treated with 1 µg mL^−1 of LPS for 24 h, with and without the test compounds (1–100 µM). After incubation, the supernatant (100 µL) was mixed with 100 µL of Griess reagent. The viability of the remaining cells was assessed using an MTT-based colorimetric assay as described above.
For orientation: Nitrite, measured by Griess reagent, commonly stands in for NO production.

In experiment [3] the test system is six bacterial strains. The experiment in a line: Antibacterial preliminary screening, text statements on all strains together. The class given is cell-based. To be noted: concentration of 10 µM. The procedure: It is based on combined biological activities of reported pyrrole sesquiterpenes and available screening models in our lab, including those regarding anti-inflammatory activities, antibacterial activities, and inhibition of α-glucosidase. […] To further evaluate the biological potential of compounds 1–6, we examined their antibacterial activities through preliminary screening at a concentration of 10 µM. The assays were conducted against three Gram-positive bacterial strains (Staphylococcus aureus, Bacillus subtilis, and Micrococcus luteus) and three Gram-negative strains (Salmonella typhimurium, Escherichia coli, and Klebsiella pneumoniae). This comparative screening aimed to determine whether any of these compounds could inhibit bacterial growth under identical conditions by conducting further experiments.
The antibacterial activities of compounds 1–6 were evaluated in 96-well plates using a modified broth microdilution method previously reported by our group. The MIC of the isolated compounds was determined against Staphylococcus aureus, Bacillus subtilis, Micrococcus luteus, Salmonella typhimurium, Escherichia coli, and Klebsiella pneumonia. Bacterial strains were cultured on TSB (Tryptic Soy Broth) agar plates and incubated at 37 °C for 24 h. […]

For experiment [4], the system named is Klebsiella pneumoniae. Description: MIC measurement (broth microdilution). Type of experiment: cell-based. The following applies: Gram-negative; screening at 10.0 µM. Here is the method: (§1) The antibacterial activities of compounds 1–6 were evaluated in 96-well plates using a modified broth microdilution method previously reported by our group. The MIC of the isolated compounds was determined against Staphylococcus aureus, Bacillus subtilis, Micrococcus luteus, Salmonella typhimurium, Escherichia coli, and Klebsiella pneumonia. Bacterial strains were cultured on TSB (Tryptic Soy Broth) agar plates and incubated at 37 °C for 24 h. A single colony was transferred to Muller–Hinton broth (MHB), continuously incubated and harvested after 24 h at 37 °C and centrifuged at 250 rpm. The suspensions were adjusted to 0.5 McFarland standard, diluted to achieve a final concentration of approximately 5 × 10^5 CFU mL^−1 and added to each well. All compounds were dissolved in DMSO and dispensed into 96-well plates at a starting concentration of 10 µM. Kanamycin was used as a positive control.

Experiment [5] deals with Bacillus subtilis. The experiment in a line: MIC measurement (broth microdilution). Type of experiment: cell-based. The following applies: Gram-positive; screening at 10.0 µM. The procedure: as §1
In general terms: In broth dilution the organism is exposed to a series of concentrations in liquid medium.

For experiment [6], the system named is Micrococcus luteus. The experiment in a line: MIC measurement (broth microdilution). The class given is cell-based. To be noted: Gram-positive; screening at 10.0 µM. Here is the method:
as §1

Experiment [7] relates to Escherichia coli. Description: MIC measurement (broth microdilution). To be noted: Gram-negative; screening at 10.0 µM. The class given is cell-based. Here is the method: as §1
For experiment [8], the system named is Staphylococcus aureus. The experiment in a line: MIC measurement (broth microdilution). Type of experiment: cell-based. The following applies: Gram-positive; screening at 10.0 µM. The procedure: as §1
Experiment [9] has as its system Salmonella typhimurium. Description: MIC measurement (broth microdilution). The class given is cell-based. The following applies: Gram-negative; screening at 10.0 µM. The procedure: as §1, with “The” for “The antibacterial activities of compounds 1–6 were evaluated in 96-well plates using a modified broth microdilution method previously reported by our group. The”
Setting [10] is: RAW264.7, 24 h, read-out: NO production (IC50, µM).

α-glucosidase, sequence (P38158 whole entry): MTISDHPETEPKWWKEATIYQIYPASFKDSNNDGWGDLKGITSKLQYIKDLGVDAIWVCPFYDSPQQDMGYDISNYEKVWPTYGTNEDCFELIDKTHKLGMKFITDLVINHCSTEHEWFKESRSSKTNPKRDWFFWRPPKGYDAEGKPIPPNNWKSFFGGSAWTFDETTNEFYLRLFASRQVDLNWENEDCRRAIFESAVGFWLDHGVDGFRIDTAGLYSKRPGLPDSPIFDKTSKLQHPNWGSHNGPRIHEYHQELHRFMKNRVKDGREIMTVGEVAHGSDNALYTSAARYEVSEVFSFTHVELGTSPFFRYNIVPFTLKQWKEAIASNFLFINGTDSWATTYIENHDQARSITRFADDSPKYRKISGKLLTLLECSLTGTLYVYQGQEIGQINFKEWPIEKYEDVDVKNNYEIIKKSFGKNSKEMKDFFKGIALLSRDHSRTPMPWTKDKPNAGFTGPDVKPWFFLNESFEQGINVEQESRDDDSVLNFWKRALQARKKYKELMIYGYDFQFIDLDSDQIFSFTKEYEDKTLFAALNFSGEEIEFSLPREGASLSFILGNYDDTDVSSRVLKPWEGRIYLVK

For `CC[C@H](CC[C@@H](C)[C@H]1CC[C@H]2[C@@H]3CCC4=CC(=O)CC[C@]4(C)[C@H]3CC[C@]12C)C(C)C` (stereo in doubt) [Compound 3, stigmast-4-en-3-one], the IC50 in [1] was above 50 µM.

With `CC1=C(O)C(=O)C=C2C1=CC=C1[C@@]2(C)CC[C@@]2(C)[C@@H]3C[C@](C)(C(=O)O)CC[C@]3(C)CC[C@]12C` [Celastrol, reference compound], the IC50 in experiment [2] (RAW264.7 cells, 1 µg mL^−1 LPS, 24 h, read-out: NO production (IC50)) amounted to 1.2 µM.

`CO[C@@H](CC(=O)c1ccc[nH]1)C(N)=O` [Compound 1, lotusin A]: the IC50 in [2] (setting [10]) was 21.5 ± 0.3 µM; in [1] (pH 7.0, 37 °C, 30 minutes, read-out: α-Glucosidase (IC50)), 18.2 ± 0.17 µM. Moreover, the “inhibition of microbial growth” value in [3] is “no inhibition”.

Regarding `CC(C)CCCC(C)C1CCC2C3CCC4CC(O)CCC4(C)C3CCC12C` (centres unmarked) [Compound 2, cholestanol], the IC50 in experiment [2] (setting [10]) was above 100 µM; in [1], above 50 µM. Besides, in [2] (RAW264.7 cells, 1 µg mL^−1 LPS, 24 h), the “NO production (IC50, µM)” value is “did not show any activity”.

Molecule `O=c1c(O)c(-c2ccc(O)c(O)c2)oc2cc(O)cc(O)c12` [Compound 4, quercetin] showed an IC50 in experiment [1] above 50 µM.

In the case of `COc1cc(-c2oc3cc(O)cc(O)c3c(=O)c2O)ccc1O` [Compound 5, isorhamnetin], in experiment [1], the 50% inhibitory concentration (IC50) is above 50 µM.

Turning to `O=c1cc(-c2ccc(O)cc2O)oc2cc(O)cc(O)c12` [Compound 6, norartocarpetin], in experiment [1] (pH 7.0, 37 °C, 30 minutes, class symbol, read-out: α-Glucosidase (IC50)), the IC50 is above 50 µM.

As to `NC[C@H]1O[C@H](O[C@H]2[C@H](O)[C@@H](O[C@H]3O[C@H](CO)[C@@H](O)[C@H](N)[C@H]3O)[C@H](N)C[C@@H]2N)[C@H](O)[C@@H](O)[C@@H]1O` [Kanamycin], the “MIC (10.0 µM) Klebsiella pneumoniae” value in experiment [4] was “A”. In experiment [5], the “MIC (10.0 µM) Bacillus subtilis” value is reported as “A”. Further, in experiment [6], the “MIC (10.0 µM) Micrococcus luteus” value is “A”. Moreover, the “MIC (10.0 µM) Escherichia coli” value in experiment [7] is reported as “A”. The “MIC (10.0 µM) Staphylococcus aureus” value in experiment [8] is listed as “A”. For the same molecule, in experiment [9], the “MIC (10.0 µM) Salmonella typhimurium” value is on record as “A”.
